According to US20220387435A1, “USE OF MULTI-TARGET PROTEIN KINASE INHIBITOR” (CSPC Zhongqi Pharmaceutical Technology (Shijiazhuang) Co., …, priority 2019, published 2022):
Several values for one entry are separate records, joined by “and”; a condition that tells them apart may be missing. Equal values may be shown once.

How the values were obtained:
[1] = test system: Chinese adult subjects with FLT3-mutant R/R AML; assay: Phase II clinical study, efficacy; type: in vivo, human; conditions: for Overall CR rate (95% CI), (CR+CRh+CRi)/enrolled subjects / best efficacy: CR / best efficacy: CRh / best efficacy: CRi / best efficacy: NE / best efficacy: PD / best efficacy: PR / best efficacy: SD: FAS; for disengagement from blood transfusion: the CR and the CRh subject
Procedure: 28 consecutive days was regarded as one treatment cycle.
The trial started with the 150 mg BID group, and after completing the first cycle of the tolerability investigation of 3 subjects in this group, the tolerability study of the 200 mg BID group was carried out. The principle of the subject enrollment was to give priority to meeting three subjects in the tolerability investigation period. Since the 300 mg QD group had been proven to be well tolerated in a single tolerability trial, other qualified subjects screened during the tolerability investigation period could directly enter the 300 mg QD group.
The second stage was the dose expansion period. After the completion of the first cycle of the study in a dose group, if the investigator assessed that the subjects had significant benefits, the dose group would undergo the cohort expansion to further explore possible effective doses, and continue to increase to at least 10 subjects. During this period, investigators, sponsors, quantitative pharmacology experts, clinical pharmacology experts, and statistical experts discussed whether to continue the cohort expansion according to the efficacy of the dose group (see FIG. 1 for the specific trial method).
Overall CR (CR, CRh, CRi) rate: defined as the proportion of subjects who achieved CR, CRh, CRi during Compound A treatment among all subjects enrolled in this study. Subjects who were not assessed for response were included in the denominator when calculating the response rate.
(1) Three year overall survival (OS): the OS time was referred to the time from the first drug administration to the death from any cause within 3 years.
(2) Three year event-free survival (EFS): it was referred to the time from the randomized enrollment to the first occurrence of any of the following conditions within 3 years: (1) no CR (CR, CRh, CRi) occurred within 6 months of treatment, (2) relapsed after reaching the specified CR (CR, CRh, CRi), (3) disease progression, (4) all-cause death at any time during the study, whichever occurred first.
(3) Duration of response-CR (DoR-CR): the DoR-CR time was referred to the time from the first achievement of CR to the recording of hematological relapse, extramedullary disease, or death from any cause (whichever was earlier).

[2] = Preclinical animal experiments of compound A, adverse reactions; type: in vivo
[3] = 0 unfavorable prognostic factors (4 subjects)
[4] = 1 unfavorable prognostic factor (9 subjects)
[5] = 2 unfavorable prognostic factors (15 subjects)
[6] = 3 subjects with FLT3-ITD^high mutation (≥0.5)
[7] = 3 subjects with FLT3-ITD^low mutation (<0.5)
[8] = 10 subjects with prior sorafenib treatment

## CC(C)n1c(Nc2cccnc2)nc2cnc(Nc3ccc(N4CCN(C)CC4)cc3)nc21 [Compound A]
[1]; [3]
  CRh: 2 subjects
  CRi: 1 subjects
  Overall CR rate: 75%
[1]; 0 unfavorable prognostic factors (4 subjects), listed as compound A
  Overall CR rate: 75%
[1]; 150 mg BID group (N = 14)
  Overall CR rate (95% CI), (CR+CRh+CRi)/enrolled subjects: 28.6 (8.39-58.10) %
  best efficacy: CR: 1 (7.1%) n (%) and 1 (7.1) n (%)
  best efficacy: CRh: 1 (7.1%) n (%) and 1 (7.1) n (%)
  best efficacy: CRi: 2 (14.3%) n (%) and 2 (14.3) n (%)
  best efficacy: NE: 2 (14.3) n (%)
  best efficacy: PD: 1 (7.1) n (%)
  best efficacy: PR: 2 (14.3) n (%)
  best efficacy: SD: 5 (35.7) n (%)
[1]; 150 mg BID group, 3-month
  survival rate: 64.3%
[1]; 150 mg BID group, 6-month
  survival rate: 38.6%
[1]; 150 mg BID group, 9-month
  survival rate: 25.7%
[1]; 150 mg BID group, 11-month
  survival rate: 25.7%
[1]; 150 mg BID group, 14 subjects
  CR/CRh cases: 2 (14.3%) n (%)
[1]; 150 mg BID group
  disengagement from blood transfusion: ≥ 56 days
[1]; 150 mg BID group, 95% CI 1.3-5.9
  median EFS: 4.9 months
[1]; 150 mg BID group, 95% CI 2.3-NC
  median OS: 4.2 months
[1]; 150 mg BID group, range 2-3 months
  median time to the first CR: 2.5 months
[1]; 200 mg BID group (N = 4)
  Overall CR rate (95% CI), (CR+CRh+CRi)/enrolled subjects: 0 (0.00-60.24) %
  best efficacy: CR: 0 (0) n (%)
  best efficacy: CRh: 0 (0) n (%)
  best efficacy: CRi: 0 (0) n (%)
  best efficacy: NE: 1 n (%) and 1 (25.0) n (%)
  best efficacy: PD: 0 (0) n (%)
  best efficacy: PR: 0 (0) n (%)
  best efficacy: SD: 3 n (%) and 3 (75.0) n (%)
[1]; 200 mg BID group, 3-month
  survival rate: 25%
[1]; 200 mg BID group, 95% CI 0.7-3.0
  median EFS: 2.3 months
[1]; 200 mg BID group, 95% CI 0.7-NC
  median OS: 2.9 months
[1]; 300 mg QD group (N = 13)
  Overall CR rate (95% CI), (CR+CRh+CRi)/enrolled subjects: 30.8 (9.09-61.43) %
  best efficacy: CR: 1 n (%) and 1 (7.7) n (%)
  best efficacy: CRh: 1 n (%) and 1 (7.7) n (%)
  best efficacy: CRi: 2 n (%) and 2 (15.4) n (%)
  best efficacy: NE: 0 (0) n (%)
  best efficacy: PD: 0 (0) n (%)
  best efficacy: PR: 0 (0) n (%)
  best efficacy: SD: 9 (69.2) n (%)
[1]; 300 mg QD group, 3-month
  survival rate: 75.2%
[1]; 300 mg QD group, 6-month
  survival rate: 50.1%
[1]; 300 mg QD group
  disengagement from blood transfusion: ≥ 56 days
[1]; 300 mg QD group, 95% CI 1.7-6.2
  median EFS: 2.9 months
[1]; 300 mg QD group, 95% CI 2.7-NC
  median OS: 4.4 months
[1]; 300 mg QD group, range 1-3 months
  median time to the first CR: 1.5 months
[1]; [4]
  CRi: 2 subjects
  NE: 1 subjects
  Overall CR rate: 20%
  PR: 1 subjects
[1]; [5]
  CR: 2 subjects
  CRi: 1 subjects
  Overall CR rate: 20%
  PR: 1 subjects
[1]; [6]
  subjects achieving CRh: 2 subjects
  subjects achieving SD: 1 subject
[1]; [7]
  subjects achieving PR as the best response: 1 subject
  subjects achieving SD as the best response: 2 subjects
[1]; 3 unfavorable prognostic factors (3 subjects)
  Overall CR rate: 0%
[1]; 8 subjects with CR/CRh/CRi
  proportion of the M5 subjects among subjects who achieved CR/CRh/CRi: 62.5%
[1]; 9 subjects with TKD mutations
  subjects achieving CRi: 2 subjects
[1]; [8]
  subjects achieving CR: 1 subject
  subjects achieving CRh: 1 subject
  subjects achieving CRi: 1 subject
[1]; 22 subjects with ITD mutations
  subjects achieving CR: 2 subjects
  subjects achieving CRh: 2 subjects
  subjects achieving CRi: 2 subjects
[1]; 31 subjects, 95% CI 2.6-5.4
  median EFS: 3.0 months
[1]; 31 subjects, 95% CI 2.9-NC
  median OS: 4.4 months
[1]; Case 2, 300 mg QD, at C3
  response: CRi
[1]; Case 2, 300 mg QD, at C4
  response: CRh
[1]; Case 3, 300 mg QD, C2
  response: CRi
[1]; Case 3, 300 mg QD, C3
  response: CRh
[1]; Case 3, 300 mg QD, in C2 (from 33.5%)
  myeloblast: 3%
[1]; Case 3, 300 mg QD, in C3
  myeloblast: 2%
[1]; Case 4, 150 mg BID, at C2
  response: CRi
[1]; Case 4, 150 mg BID, at C3
  response: CRh
[1]; Case 5, 150 mg BID
  duration of the CR response: 5 cycles
[1]; Case 5, 150 mg BID, C11
  response: CRi
[1]; Case 5, 150 mg BID, C12
  response: CRi
[1]; Case 5, 150 mg BID, after C1
  myeloblast: 3%
[1]; FAB M2 type (1/6)
  CR/CRh/CRi proportion: 16.7%
[1]; FAB M4 type (2/9)
  CR/CRh/CRi proportion: 22.2%
[1]; FAB M5 type (5/14)
  CR/CRh/CRi proportion: 35.7%
[1]; Total (N = 31)
  Overall CR rate (95% CI), (CR+CRh+CRi)/enrolled subjects: 25.8 (11.86-44.61) %
  best efficacy: CR: 2 (6.5%) n (%) and 2 (6.5) n (%)
  best efficacy: CRh: 2 (6.5%) n (%) and 2 (6.5) n (%)
  best efficacy: CRi: 4 (12.9%) n (%) and 4 (12.9) n (%)
  best efficacy: NE: 3 (9.7) n (%)
  best efficacy: PD: 1 (3-2) n (%)
  best efficacy: PR: 2 (6.5%) n (%) and 2 (6.5) n (%)
  best efficacy: SD: 17 (54.8) n (%)
[1]; subjects with 1-2 unfavorable prognostic factors
  Overall CR rate: 20%
[1]; the SD subject with FLT3-ITD^high mutation, at C2
  blast cells decreased compared with the baseline: 70%
[2]
  heart-related adverse reactions: myocardial cell necrosis and fibrosis, increased heart rate, and QT interval prolongation in dying animals
  liver-related adverse reactions: hepatocyte degeneration and necrosis and elevated transaminase
